Measurements reported in DBAASP.
≈ marks a conversion by molar mass, not a printed value. Where “and” joins values, the source holds several entries; their conditions need not be identical. Equal values may be shown once.

Assays:
Test in all cases: ≥ marks a high value that may be exact or a test limit, other limits are often not marked, values filed in µg/mL are converted to µM
[1] = system: Acinetobacter baumannii ATCC 19606
[2] = system: Enterococcus faecalis ATCC 29212
[3] = system: Escherichia coli ATCC 25922
[4] = system: Pseudomonas aeruginosa ATCC 27853
[5] = system: Staphylococcus aureus ATCC 25923
[6] = system: Pseudomonas aeruginosa ATCC 9027
[7] = system: Staphylococcus aureus ATCC 6538
[8] = system: Candida albicans ATCC 2002
[9] = system: Staphylococcus aureus NCTC 8325
Escherichia coli UB1005 = system: Escherichia coli UB1005
[10] = system: Salmonella enterica subsp. enterica serovar Typhimurium C77-31
[11] = system: Staphylococcus aureus ATCC 29213
[12] = system: Staphylococcus epidermidis ATCC 12228
[13] = system: Staphylococcus aureus NCTC 10788
[14] = system: Candida albicans ATCC 10231

## CSCC[C@H](NC(=O)[C@H](CCCCN)NC(=O)[C@H](CC(C)C)NC(=O)[C@H](CC(C)C)NC(=O)[C@H](Cc1cnc[nH]1)NC(=O)[C@@H]1CCCN1C(=O)[C@H](CC(C)C)NC(=O)[C@H](CC(C)C)NC(=O)[C@H](Cc1c[nH]c2ccccc12)NC(=O)[C@H](CC(C)C)NC(=O)[C@H](CCCCN)NC(=O)[C@H](CCC(=O)O)NC(=O)CNC(=O)[C@H](C)NC(=O)[C@@H](NC(=O)[C@H](C)N)C(C)C)C(=O)N[C@@H](CC(C)C)C(=O)N[C@@H](CC(C)C)C(=O)N[C@H](C(=O)N1CCC[C@H]1C(=O)N[C@H](C(=O)N1CCC[C@H]1C(N)=O)[C@@H](C)O)[C@@H](C)O [AVAGEKLWLLPHLLKMLLTPTP]
[1]
  MIC: > 164 µM
[2]
  MIC: 164 µM (≈ 400 µg/mL)
[3]
  MIC: > 164 µM
[4]
  MIC: > 164 µM
[5]
  MIC: 164 µM (≈ 400 µg/mL)

## CC(C)C[C@H](NC(=O)[C@H](CCCCN)NC(=O)[C@H](CCCCN)NC(=O)[C@H](CC(C)C)NC(=O)[C@H](C)NC(=O)[C@H](CCCCN)NC(=O)[C@H](C)NC(=O)[C@H](CC(C)C)NC(=O)[C@H](CC(C)C)NC(=O)[C@H](CCCCN)NC(=O)[C@H](C)NC(=O)[C@@H](N)Cc1ccccc1)C(N)=O [FAKLLAKALKKL]
[6]
  MIC: 18.6 µM (≈ 25 µg/mL)
[7]
  MIC: 7.44 µM (≈ 9.99 µg/mL)

## CC[C@H](C)[C@H](NC(=O)[C@H](C)NC(=O)[C@H](CCCN=C(N)N)NC(=O)[C@H](Cc1ccc(O)cc1)NC(=O)[C@H](CC(C)C)NC(=O)[C@H](CC(N)=O)NC(=O)[C@H](Cc1ccc(O)cc1)NC(=O)CNC(=O)[C@H](C)NC(=O)[C@@H](NC(=O)[C@@H](NC(=O)[C@@H](NC(=O)[C@H](CCCN=C(N)N)NC(=O)[C@@H](NC(=O)[C@@H](NC(=O)[C@@H](N)C(C)C)C(C)C)[C@@H](C)CC)[C@@H](C)O)C(C)C)C(C)C)C(=O)N[C@@H](CCCCN)C(=O)N[C@@H](CCCCN)C(=O)N[C@@H](CCCCN)C(=O)O [VVIRTVVAGYNLYRAIKKK]
[8]
  MIC: 25.7 µM (≈ 56.3 µg/mL)

## CC(C)C[C@H](NC(=O)[C@H](C)NC(=O)[C@H](CCCCN)NC(=O)[C@H](CCCCN)NC(=O)[C@H](CC(C)C)NC(=O)[C@H](Cc1ccccc1)NC(=O)[C@H](CCCCN)NC(=O)[C@H](C)NC(=O)[C@H](CC(C)C)NC(=O)[C@H](CC(C)C)NC(=O)[C@H](CCCCN)NC(=O)[C@H](C)NC(=O)[C@@H](N)Cc1ccccc1)C(N)=O [FAKLLAKFLKKAL]
[6]
  MIC: 134 µM (≈ 200 µg/mL)
[7]
  MIC: 6.71 µM (≈ 9.99 µg/mL)

## CC[C@H](C)[C@H](NC(=O)[C@H](C)NC(=O)[C@H](CCC(=O)O)NC(=O)[C@H](Cc1cnc[nH]1)NC(=O)[C@H](Cc1ccccc1)NC(=O)CNC(=O)[C@H](CCC(N)=O)NC(=O)[C@H](Cc1ccccc1)NC(=O)[C@@H](NC(=O)[C@H](CCCCN)NC(=O)[C@H](CCCCN)NC(=O)[C@H](CC(C)C)NC(=O)[C@H](C)NC(=O)[C@H](CC(N)=O)NC(=O)[C@H](CC(C)C)NC(=O)CN)C(C)C)C(=O)N[C@@H](CCCCN)C(=O)N[C@@H](CC(C)C)C(=O)N[C@H](C(=O)N[C@@H](CC(N)=O)C(=O)N[C@@H](CC(N)=O)C(=O)N[C@@H](Cc1cnc[nH]1)C(=O)N[C@H](C(=O)N[C@@H](CCC(N)=O)C(=O)O)C(C)C)[C@@H](C)CC [GLNALKKVFQGFHEAIKLINNHVQ]
[3]
  MIC: > 80 µM
[9]
  MIC: ≥ 160 µM

## CC[C@H](C)[C@H](NC(=O)[C@@H](NC(=O)[C@@H](NC(=O)[C@@H]1CCCN1C(=O)[C@H](Cc1c[nH]c2ccccc12)NC(=O)[C@H](Cc1ccccc1)NC(=O)[C@H](CCCN=C(N)N)NC(=O)[C@H](CCCCN)NC(=O)[C@@H](NC(=O)[C@@H](N)CCCN=C(N)N)[C@@H](C)CC)C(C)C)C(C)C)C(=O)N[C@@H](CCCN=C(N)N)C(=O)O [RIKRFWPVVIR]
[8]
  MIC: ≥ 102 µM

## CC(C)C[C@H](NC(=O)[C@H](C)NC(=O)[C@H](CCCCN)NC(=O)[C@H](CCCCN)NC(=O)[C@H](Cc1ccccc1)NC(=O)[C@H](C)NC(=O)[C@H](CCCCN)NC(=O)[C@H](C)NC(=O)[C@H](Cc1ccccc1)NC(=O)[C@H](CC(C)C)NC(=O)[C@H](CCCCN)NC(=O)[C@H](C)NC(=O)[C@@H](N)Cc1ccccc1)C(N)=O [FAKLFAKAFKKAL]
[6]
  MIC: 135 µM (≈ 200 µg/mL)
[7]
  MIC: 67.4 µM (≈ 99.9 µg/mL)

## CC(C)C[C@H](NC(=O)[C@H](CCCN=C(N)N)NC(=O)[C@H](CCCCN)NC(=O)[C@H](Cc1c[nH]c2ccccc12)NC(=O)[C@@H](NC(=O)[C@H](CCCCN)NC(=O)[C@H](CCCCN)NC(=O)[C@H](CCCN=C(N)N)NC(=O)[C@H](CC(C)C)NC(=O)[C@H](CCCN=C(N)N)NC(=O)[C@@H](N)CCCN=C(N)N)[C@@H](C)O)C(=O)N[C@@H](Cc1c[nH]c2ccccc12)C(N)=O [RRLRKKTWKRLW]
[3]
  MIC: 16 µM (≈ 27.6 µg/mL)
Escherichia coli UB1005
  MIC: ≥ 32 µM
[10]
  MIC: ≥ 64 µM
[5]
  MIC: > 128 µM
[11]
  MIC: 64 µM (≈ 110 µg/mL)
[12]
  MIC: 64 µM (≈ 110 µg/mL)

## CC(C)C[C@H](NC(=O)[C@H](CC(C)C)NC(=O)[C@H](CO)NC(=O)CNC(=O)[C@H](CC(C)C)NC(=O)[C@H](CC(C)C)NC(=O)CNC(=O)[C@H](CC(C)C)NC(=O)[C@@H](N)Cc1ccccc1)C(N)=O [FLGLLGSLL]
[13]
  MIC: ≥ 34 µM

## CC[C@H](C)[C@H](NC(=O)[C@H](CC(C)C)NC(=O)[C@H](CC(C)C)NC(=O)[C@@H]1CCCN1C(=O)[C@H](CCCCN)NC(=O)[C@H](CC(C)C)NC(=O)[C@H](CCCCN)NC(=O)[C@@H]1CCCN1C(=O)[C@H](CC(C)C)NC(=O)[C@H](CC(C)C)NC(=O)[C@H](CC(C)C)NC(=O)[C@H](CCCCN)NC(=O)[C@H](CC(C)C)NC(=O)[C@H](CC(C)C)NC(=O)[C@H](CCCCN)NC(=O)[C@@H](N)Cc1ccc(O)cc1)C(=O)N[C@@H](CCCCN)C(=O)N[C@@H](CC(C)C)C(N)=O [YKLLKLLLPKLKPLLIKL]
[14]
  MIC: 67.3 µM (≈ 144 µg/mL)
[4]
  MIC: 5.27 µM (≈ 11.3 µg/mL)
[11]
  MIC: 2.28 µM (≈ 4.9 µg/mL)

## CC[C@H](C)[C@H](NC(=O)[C@H](Cc1c[nH]c2ccccc12)NC(=O)[C@H](CCCCN)NC(=O)[C@H](CC(C)C)NC(=O)[C@@H](NC(=O)[C@H](CCCCN)NC(=O)CNC(=O)[C@@H](NC(=O)[C@H](CCCCN)NC(=O)[C@H](CCCCN)NC(=O)[C@H](CC(C)C)NC(=O)[C@H](CCCN=C(N)N)NC(=O)[C@H](CCCCN)NC(=O)[C@H](CCCN=C(N)N)NC(=O)[C@@H](NC(=O)[C@H](CCCCN)NC(=O)[C@H](CCCCN)NC(=O)[C@H](CCCN=C(N)N)NC(=O)[C@H](CC(C)C)NC(=O)[C@H](CCCN=C(N)N)NC(=O)[C@H](CCCN=C(N)N)NC(=O)[C@H](Cc1ccccc1)NC(=O)[C@H](CCCN=C(N)N)NC(=O)CN)[C@@H](C)O)[C@@H](C)CC)C(C)C)C(N)=O [GRFRRLRKKTRKRLKKIGKVLKWI]
[3]
  MIC: 1 µM and 2 µM
Escherichia coli UB1005
  MIC: 2 µM (≈ 6.13 µg/mL)
[10]
  MIC: 1 µM (≈ 3.06 µg/mL)
[5]
  MIC: 4 µM (≈ 12.3 µg/mL)
[11]
  MIC: 2 µM (≈ 6.13 µg/mL)
[12]
  MIC: 2 µM (≈ 6.13 µg/mL)

## CC[C@H](C)[C@@H]1NC(=O)[C@H](C)NC(=O)[C@@H](NC(=O)[C@H](Cc2ccccc2)NC(=O)[C@@H](NC(=O)[C@H](CCCCN)NC(=O)[C@@H]2CCCN2C(=O)[C@H](CC(C)C)NC(=O)[C@H](Cc2ccccc2)NC(=O)[C@H](CCCCN)NC(=O)[C@H](C)NC(=O)[C@H](C)NC(=O)[C@H](CCSC)NC(=O)CNC(=O)[C@H](C)NC(=O)[C@@H](NC(=O)[C@H](Cc2ccccc2)NC(=O)[C@@H]2CCCN2C(=O)[C@H](CC(C)C)NC(=O)[C@@H](N)Cc2ccccc2)[C@@H](C)CC)[C@@H](C)CC)CSSC[C@@H](C(=O)O)NC(=O)[C@H](CCCCN)NC(=O)[C@H](CCCCN)NC(=O)[C@H](CO)NC1=O [FLPFIAGMAAKFLPKIFCAISKKC]
[9]
  MIC: 2 µM (≈ 5.29 µg/mL)

## CC(C)C[C@H](NC(=O)[C@H](CC(C)C)NC(=O)[C@H](CCCCN)NC(=O)[C@H](CCCCN)NC(=O)[C@H](CC(C)C)NC(=O)[C@H](CO)NC(=O)[C@H](CCCCN)NC(=O)[C@H](CC(C)C)NC(=O)[C@@H](N)Cc1ccccc1)C(N)=O [FLKSLKKLL]
[1]
  MIC: > 117 µM
[3]
  MIC: 58.7 µM (≈ 63.9 µg/mL)
[4]
  MIC: 7.34 µM (≈ 7.99 µg/mL)
[5]
  MIC: 117 µM (≈ 128 µg/mL)

## CC(C)C[C@H](NC(=O)[C@H](Cc1ccccc1)NC(=O)[C@H](CCCCN)NC(=O)[C@H](CCCCN)NC(=O)[C@H](CC(C)C)NC(=O)[C@H](C)NC(=O)[C@H](CCCCN)NC(=O)[C@H](C)NC(=O)[C@H](CC(C)C)NC(=O)[C@H](CC(C)C)NC(=O)[C@H](CCCCN)NC(=O)[C@H](C)NC(=O)[C@@H](N)Cc1ccccc1)C(N)=O [FAKLLAKALKKFL]
[6]
  MIC: 67.1 µM (≈ 99.9 µg/mL)
[7]
  MIC: 6.71 µM (≈ 9.99 µg/mL)

## CC[C@H](C)[C@H](NC(=O)[C@H](C)NC(=O)[C@H](CCCN=C(N)N)NC(=O)[C@H](Cc1ccc(O)cc1)NC(=O)[C@H](CC(C)C)NC(=O)[C@H](CC(N)=O)NC(=O)[C@H](Cc1ccc(O)cc1)NC(=O)CNC(=O)[C@H](C)NC(=O)[C@@H](NC(=O)[C@@H](NC(=O)[C@@H](NC(=O)[C@H](CCCN=C(N)N)NC(=O)[C@@H](NC(=O)[C@@H](N)C(C)C)[C@@H](C)CC)[C@@H](C)O)C(C)C)C(C)C)C(=O)N[C@@H](CCCCN)C(=O)N[C@@H](CCCCN)C(=O)N[C@@H](CCCCN)C(=O)O [VIRTVVAGYNLYRAIKKK]
[8]
  MIC: ≥ 35.8 µM
